Data reported in ChEMBL document CHEMBL1201862, “PubChem BioAssay data set” (2004).
The source made the active and inactive calls. Cut-off read from the data, not from the text of the source: actives have a measured IC50 and inactives only a lower limit.

Key:
Assay type in all cases: functional
[1] = target: T1, Apoptotic protease-activating factor 1 (Homo sapiens, UniProt O14727)
T1 sequence (O14727 whole entry): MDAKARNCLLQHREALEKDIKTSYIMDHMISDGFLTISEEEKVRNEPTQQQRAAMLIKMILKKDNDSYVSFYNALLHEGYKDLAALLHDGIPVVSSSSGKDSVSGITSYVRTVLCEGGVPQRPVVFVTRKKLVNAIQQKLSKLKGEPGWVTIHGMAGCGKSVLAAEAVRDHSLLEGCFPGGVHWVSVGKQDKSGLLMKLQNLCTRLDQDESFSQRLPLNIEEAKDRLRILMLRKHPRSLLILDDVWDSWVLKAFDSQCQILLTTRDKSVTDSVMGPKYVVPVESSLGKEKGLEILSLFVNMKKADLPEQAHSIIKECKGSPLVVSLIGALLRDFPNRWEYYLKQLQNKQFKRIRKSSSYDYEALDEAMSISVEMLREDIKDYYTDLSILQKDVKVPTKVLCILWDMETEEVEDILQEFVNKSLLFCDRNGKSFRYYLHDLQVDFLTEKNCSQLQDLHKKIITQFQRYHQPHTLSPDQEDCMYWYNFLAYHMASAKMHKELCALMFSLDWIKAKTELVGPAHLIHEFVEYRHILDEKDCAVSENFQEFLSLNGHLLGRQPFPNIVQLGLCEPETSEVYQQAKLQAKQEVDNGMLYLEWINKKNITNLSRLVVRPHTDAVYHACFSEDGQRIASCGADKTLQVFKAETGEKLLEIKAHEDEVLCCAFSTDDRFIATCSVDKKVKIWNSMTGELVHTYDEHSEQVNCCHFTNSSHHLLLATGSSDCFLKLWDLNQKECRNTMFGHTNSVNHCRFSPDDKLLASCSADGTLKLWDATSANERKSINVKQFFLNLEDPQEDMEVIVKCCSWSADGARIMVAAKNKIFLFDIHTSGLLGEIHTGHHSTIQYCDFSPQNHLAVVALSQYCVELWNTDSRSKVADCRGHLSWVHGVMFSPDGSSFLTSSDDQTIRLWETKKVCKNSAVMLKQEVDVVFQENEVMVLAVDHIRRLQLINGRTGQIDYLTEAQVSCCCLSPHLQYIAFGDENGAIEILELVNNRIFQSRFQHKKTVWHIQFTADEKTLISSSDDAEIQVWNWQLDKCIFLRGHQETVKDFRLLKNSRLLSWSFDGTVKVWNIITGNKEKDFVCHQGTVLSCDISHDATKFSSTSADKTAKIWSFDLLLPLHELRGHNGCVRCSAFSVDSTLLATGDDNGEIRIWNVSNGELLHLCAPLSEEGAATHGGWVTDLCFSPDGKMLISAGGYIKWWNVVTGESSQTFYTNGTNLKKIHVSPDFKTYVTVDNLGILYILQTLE

[2] = target: T2, Sentrin-specific protease 8 (Homo sapiens, UniProt Q96LD8);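 note: luminescence read-out of SENP8 inhibition, dose-response confirmation following an ultra-high-throughput screen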
T2 sequence (Q96LD8 whole entry): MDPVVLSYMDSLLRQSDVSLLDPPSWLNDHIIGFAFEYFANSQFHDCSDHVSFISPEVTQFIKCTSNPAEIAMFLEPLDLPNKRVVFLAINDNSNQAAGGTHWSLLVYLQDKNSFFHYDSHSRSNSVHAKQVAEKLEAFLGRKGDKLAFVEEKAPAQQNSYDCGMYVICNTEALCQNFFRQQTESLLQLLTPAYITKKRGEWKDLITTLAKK

[3] = target: T3, Sentrin-specific protease 7 (Homo sapiens, UniProt Q9BQF6);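 note: Luminescence-based dose-response confirmation of ultra-high-throughput screening hits, measuring inhibition of SENP7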
T3 sequence (Q9BQF6 whole entry): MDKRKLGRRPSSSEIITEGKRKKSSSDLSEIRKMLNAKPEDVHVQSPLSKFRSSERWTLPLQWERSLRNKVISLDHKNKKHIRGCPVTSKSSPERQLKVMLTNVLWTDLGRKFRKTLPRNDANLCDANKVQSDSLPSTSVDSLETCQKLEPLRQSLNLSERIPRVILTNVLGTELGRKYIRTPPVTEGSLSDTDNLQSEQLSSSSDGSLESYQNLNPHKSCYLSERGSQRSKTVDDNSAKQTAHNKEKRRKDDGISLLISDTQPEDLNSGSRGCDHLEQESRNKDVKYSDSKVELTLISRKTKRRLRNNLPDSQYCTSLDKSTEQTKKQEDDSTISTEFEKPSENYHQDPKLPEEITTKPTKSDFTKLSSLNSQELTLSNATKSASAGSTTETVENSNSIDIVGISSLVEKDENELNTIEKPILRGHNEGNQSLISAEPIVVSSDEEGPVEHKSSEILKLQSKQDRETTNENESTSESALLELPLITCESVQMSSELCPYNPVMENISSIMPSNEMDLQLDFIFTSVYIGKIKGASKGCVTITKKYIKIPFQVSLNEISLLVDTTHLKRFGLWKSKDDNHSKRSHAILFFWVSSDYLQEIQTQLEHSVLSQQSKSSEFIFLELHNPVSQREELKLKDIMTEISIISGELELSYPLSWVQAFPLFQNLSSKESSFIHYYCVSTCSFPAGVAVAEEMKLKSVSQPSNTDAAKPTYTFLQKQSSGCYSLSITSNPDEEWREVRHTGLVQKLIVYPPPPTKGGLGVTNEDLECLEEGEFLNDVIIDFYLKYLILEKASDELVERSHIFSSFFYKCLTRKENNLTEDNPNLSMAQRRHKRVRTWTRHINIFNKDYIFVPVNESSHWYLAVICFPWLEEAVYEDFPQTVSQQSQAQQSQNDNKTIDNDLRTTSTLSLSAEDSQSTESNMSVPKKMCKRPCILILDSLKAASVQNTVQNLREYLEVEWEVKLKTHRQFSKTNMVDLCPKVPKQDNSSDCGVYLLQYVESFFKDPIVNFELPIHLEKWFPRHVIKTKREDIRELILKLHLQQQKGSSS

Caspase-3 = target: T4, Caspase-3 (Homo sapiens, UniProt P42574);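 note: Dose-response selectivity test against caspase-3 for candidate inhibitors of sentrin-specific proteases (SENPs)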
T4 sequence (P42574 whole entry): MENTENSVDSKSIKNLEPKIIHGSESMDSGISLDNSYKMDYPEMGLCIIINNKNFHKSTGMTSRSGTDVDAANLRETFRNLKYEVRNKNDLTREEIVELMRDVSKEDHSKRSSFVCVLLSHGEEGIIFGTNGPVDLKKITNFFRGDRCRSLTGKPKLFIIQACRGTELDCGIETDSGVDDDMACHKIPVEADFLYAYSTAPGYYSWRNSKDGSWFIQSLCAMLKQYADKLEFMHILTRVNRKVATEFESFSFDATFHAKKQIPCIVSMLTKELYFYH

Measured: IC50

CC(C)n1cnc2c(NCc3ccccc3)cc(OCC3CCN(C)CC3)cc21
active: [1] 6.63 µM | [2] 4.97 µM | [3] 5.65 µM | Caspase-3 7.82 µM

NS(=O)(=O)c1ccc(NC2=CC(=O)C(=O)c3ccccc32)cc1
active: [1] 2.08 µM | [2] 4.96 µM | [3] 7.93 µM | Caspase-3 9.75 µM

CC(C)N(C(=O)Nc1ccc2nsnc2c1)C(C)C
active: [1] 6.61 µM | [2] 2.41 µM | [3] 3.49 µM | Caspase-3 5.81 µM
